Calls of active or inactive are those of the source.

For orientation: AC50 means the midpoint of the concentration-response curve, whichever way the signal moves. The term IC50 denotes the point on the concentration scale where inhibition reaches its midpoint. A word on the EC50: it is the concentration that produces a half-maximal response.

Assay [1] is described as follows: viability loss of HMLE_sh_eGFP cells – cell-based, luminescence, counter-screen for HMLE_sh_ECad selective toxicity project, dose response (AID 463074).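 Also: HMLE human mammary epithelial cells expressing control shRNA against eGFP.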 It counts as functional, Homo sapiens. Background: A counterscreen serves to expose hits that act by an unwanted route or on another target.
Assay [2] is described as follows: Luminescence Cell-Based Dose Retest to Confirm Inhibitors of Cancer Stem Cells. [Related pubchem assays (depositor defined):AID2717, AID2721]. It counts as functional. The note with it: Homo sapiens.
A further assay deals with Escherichia coli. Briefly: microbe, parasite or virus in culture.
Assay [3] concerns MDCK. Nature of the assay: antiviral activity against H1N1 influenza, dose response, cell-based, strain KY136 (AID 540257). It is filed as functional. The note with it: Canis lupus familiaris.
A further assay deals with Nonstructural protein 1 (Influenza A virus, UniProt Q194T2). It is filed as functional, Influenza A virus (A/California/07/2009(H1N1)).
Assay [4] relates to MDCK. Nature of the assay: antiviral activity against H1N1 influenza, dose response, cell-based, strain KY180 (AID 540254). It counts as functional. The note with it: Canis lupus familiaris.
Another assay deals with ORF 73 (Human herpesvirus 8, UniProt O40947). Briefly: KSHV LANA DNA-binding disruption – biochemical, fluorescence polarization, cherry-picked samples, dose response (AID 504725).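 Also: fluorescence polarization of a labeled DNA duplex reporting LANA DNA binding; potency is for inhibitors that block LANA binding to the DNA.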 Also noted: species or system Human gammaherpesvirus 8. (Polarisation of emitted light reports the rotation of a fluorescent probe.)
ORF 73, sequence (O40947 whole entry): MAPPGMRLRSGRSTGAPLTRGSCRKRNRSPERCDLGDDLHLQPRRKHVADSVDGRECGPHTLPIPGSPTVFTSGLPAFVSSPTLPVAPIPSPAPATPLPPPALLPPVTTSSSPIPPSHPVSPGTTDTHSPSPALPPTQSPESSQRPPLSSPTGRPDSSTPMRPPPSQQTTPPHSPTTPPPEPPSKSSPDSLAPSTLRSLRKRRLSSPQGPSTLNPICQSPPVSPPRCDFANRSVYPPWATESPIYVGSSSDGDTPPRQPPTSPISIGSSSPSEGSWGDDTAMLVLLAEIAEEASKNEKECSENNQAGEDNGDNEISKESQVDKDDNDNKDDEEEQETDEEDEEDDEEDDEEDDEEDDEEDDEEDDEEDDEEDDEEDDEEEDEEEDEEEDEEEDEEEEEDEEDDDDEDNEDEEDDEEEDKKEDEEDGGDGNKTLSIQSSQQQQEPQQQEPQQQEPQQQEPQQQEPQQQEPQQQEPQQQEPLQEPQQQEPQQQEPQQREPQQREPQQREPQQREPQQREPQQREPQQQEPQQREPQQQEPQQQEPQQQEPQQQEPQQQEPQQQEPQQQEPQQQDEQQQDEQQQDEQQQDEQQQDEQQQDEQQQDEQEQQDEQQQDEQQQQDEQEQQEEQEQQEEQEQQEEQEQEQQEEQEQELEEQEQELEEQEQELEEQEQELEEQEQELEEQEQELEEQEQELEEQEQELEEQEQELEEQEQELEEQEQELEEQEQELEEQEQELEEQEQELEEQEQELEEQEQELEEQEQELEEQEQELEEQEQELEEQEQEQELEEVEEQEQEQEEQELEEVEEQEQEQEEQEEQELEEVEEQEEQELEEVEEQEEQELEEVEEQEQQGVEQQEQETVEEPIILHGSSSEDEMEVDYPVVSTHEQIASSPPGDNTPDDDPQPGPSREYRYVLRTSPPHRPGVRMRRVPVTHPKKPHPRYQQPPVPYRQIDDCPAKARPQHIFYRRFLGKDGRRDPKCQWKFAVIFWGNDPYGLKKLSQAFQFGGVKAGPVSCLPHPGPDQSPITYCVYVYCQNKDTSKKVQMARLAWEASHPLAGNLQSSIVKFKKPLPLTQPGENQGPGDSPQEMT
Assay [5] has as its target T1, Heat shock factor protein 1 (Mus musculus, UniProt P38532).
T1 sequence (P38532 whole entry): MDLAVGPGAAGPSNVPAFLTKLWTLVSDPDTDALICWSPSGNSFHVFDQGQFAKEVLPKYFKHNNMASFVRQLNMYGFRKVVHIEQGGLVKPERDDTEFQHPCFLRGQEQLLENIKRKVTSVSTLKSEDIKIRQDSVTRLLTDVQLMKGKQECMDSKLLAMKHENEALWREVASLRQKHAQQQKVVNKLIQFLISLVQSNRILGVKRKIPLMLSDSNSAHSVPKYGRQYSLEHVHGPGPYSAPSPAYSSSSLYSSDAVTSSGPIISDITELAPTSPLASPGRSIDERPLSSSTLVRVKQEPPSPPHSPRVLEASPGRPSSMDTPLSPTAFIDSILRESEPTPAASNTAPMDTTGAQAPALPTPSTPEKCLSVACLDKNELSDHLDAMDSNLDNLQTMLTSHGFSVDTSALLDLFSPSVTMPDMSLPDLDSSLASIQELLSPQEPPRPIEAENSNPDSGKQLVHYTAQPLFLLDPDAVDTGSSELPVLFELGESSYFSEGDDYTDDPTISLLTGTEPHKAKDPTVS
Nature of the assay: enhancement of HSF1-driven luciferase signal – cell-based, NIH3T3, luminescence, dose retest, confirmation (AID 435004).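 Also: stress induced by proteasome inhibitor MG132 added 30 min after compound; luciferase reporter driven by HSF1 response element in NIH3T3 cells; actives raise luminescence as potentiators of the MG132 stress response.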 It counts as functional.

For assay [6], the target named is Peroxisome proliferator-activated receptor gamma/Nuclear receptor corepressor 2 (Homo sapiens, UniProt P37231+Q9Y618). Briefly: Counterscreen for NR2E3 inverse agonists: TR-FRET-based biochemical high throughput dose response assay to identify inverse agonists of the interaction between peroxisome proliferator-activated receptor gamma (PPARg) and nuclear receptor co-repressor 2 (NCOR2). It counts as functional.
Peroxisome proliferator-activated receptor gamma/Nuclear receptor corepressor 2, sequence (P37231 whole entry): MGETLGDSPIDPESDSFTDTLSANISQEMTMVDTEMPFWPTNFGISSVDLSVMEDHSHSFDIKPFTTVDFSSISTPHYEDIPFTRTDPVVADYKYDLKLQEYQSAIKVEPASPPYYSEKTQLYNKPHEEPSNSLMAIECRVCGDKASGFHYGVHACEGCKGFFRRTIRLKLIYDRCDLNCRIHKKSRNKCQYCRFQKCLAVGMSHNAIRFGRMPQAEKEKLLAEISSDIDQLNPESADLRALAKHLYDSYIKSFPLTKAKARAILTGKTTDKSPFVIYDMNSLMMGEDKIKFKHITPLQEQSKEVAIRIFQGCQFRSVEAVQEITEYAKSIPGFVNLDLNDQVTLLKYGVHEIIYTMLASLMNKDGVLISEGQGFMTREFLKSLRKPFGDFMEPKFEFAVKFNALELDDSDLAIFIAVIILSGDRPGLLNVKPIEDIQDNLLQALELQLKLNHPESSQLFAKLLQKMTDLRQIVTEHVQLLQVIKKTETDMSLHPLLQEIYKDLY
Peroxisome proliferator-activated receptor gamma/Nuclear receptor corepressor 2, sequence (Q9Y618 whole entry): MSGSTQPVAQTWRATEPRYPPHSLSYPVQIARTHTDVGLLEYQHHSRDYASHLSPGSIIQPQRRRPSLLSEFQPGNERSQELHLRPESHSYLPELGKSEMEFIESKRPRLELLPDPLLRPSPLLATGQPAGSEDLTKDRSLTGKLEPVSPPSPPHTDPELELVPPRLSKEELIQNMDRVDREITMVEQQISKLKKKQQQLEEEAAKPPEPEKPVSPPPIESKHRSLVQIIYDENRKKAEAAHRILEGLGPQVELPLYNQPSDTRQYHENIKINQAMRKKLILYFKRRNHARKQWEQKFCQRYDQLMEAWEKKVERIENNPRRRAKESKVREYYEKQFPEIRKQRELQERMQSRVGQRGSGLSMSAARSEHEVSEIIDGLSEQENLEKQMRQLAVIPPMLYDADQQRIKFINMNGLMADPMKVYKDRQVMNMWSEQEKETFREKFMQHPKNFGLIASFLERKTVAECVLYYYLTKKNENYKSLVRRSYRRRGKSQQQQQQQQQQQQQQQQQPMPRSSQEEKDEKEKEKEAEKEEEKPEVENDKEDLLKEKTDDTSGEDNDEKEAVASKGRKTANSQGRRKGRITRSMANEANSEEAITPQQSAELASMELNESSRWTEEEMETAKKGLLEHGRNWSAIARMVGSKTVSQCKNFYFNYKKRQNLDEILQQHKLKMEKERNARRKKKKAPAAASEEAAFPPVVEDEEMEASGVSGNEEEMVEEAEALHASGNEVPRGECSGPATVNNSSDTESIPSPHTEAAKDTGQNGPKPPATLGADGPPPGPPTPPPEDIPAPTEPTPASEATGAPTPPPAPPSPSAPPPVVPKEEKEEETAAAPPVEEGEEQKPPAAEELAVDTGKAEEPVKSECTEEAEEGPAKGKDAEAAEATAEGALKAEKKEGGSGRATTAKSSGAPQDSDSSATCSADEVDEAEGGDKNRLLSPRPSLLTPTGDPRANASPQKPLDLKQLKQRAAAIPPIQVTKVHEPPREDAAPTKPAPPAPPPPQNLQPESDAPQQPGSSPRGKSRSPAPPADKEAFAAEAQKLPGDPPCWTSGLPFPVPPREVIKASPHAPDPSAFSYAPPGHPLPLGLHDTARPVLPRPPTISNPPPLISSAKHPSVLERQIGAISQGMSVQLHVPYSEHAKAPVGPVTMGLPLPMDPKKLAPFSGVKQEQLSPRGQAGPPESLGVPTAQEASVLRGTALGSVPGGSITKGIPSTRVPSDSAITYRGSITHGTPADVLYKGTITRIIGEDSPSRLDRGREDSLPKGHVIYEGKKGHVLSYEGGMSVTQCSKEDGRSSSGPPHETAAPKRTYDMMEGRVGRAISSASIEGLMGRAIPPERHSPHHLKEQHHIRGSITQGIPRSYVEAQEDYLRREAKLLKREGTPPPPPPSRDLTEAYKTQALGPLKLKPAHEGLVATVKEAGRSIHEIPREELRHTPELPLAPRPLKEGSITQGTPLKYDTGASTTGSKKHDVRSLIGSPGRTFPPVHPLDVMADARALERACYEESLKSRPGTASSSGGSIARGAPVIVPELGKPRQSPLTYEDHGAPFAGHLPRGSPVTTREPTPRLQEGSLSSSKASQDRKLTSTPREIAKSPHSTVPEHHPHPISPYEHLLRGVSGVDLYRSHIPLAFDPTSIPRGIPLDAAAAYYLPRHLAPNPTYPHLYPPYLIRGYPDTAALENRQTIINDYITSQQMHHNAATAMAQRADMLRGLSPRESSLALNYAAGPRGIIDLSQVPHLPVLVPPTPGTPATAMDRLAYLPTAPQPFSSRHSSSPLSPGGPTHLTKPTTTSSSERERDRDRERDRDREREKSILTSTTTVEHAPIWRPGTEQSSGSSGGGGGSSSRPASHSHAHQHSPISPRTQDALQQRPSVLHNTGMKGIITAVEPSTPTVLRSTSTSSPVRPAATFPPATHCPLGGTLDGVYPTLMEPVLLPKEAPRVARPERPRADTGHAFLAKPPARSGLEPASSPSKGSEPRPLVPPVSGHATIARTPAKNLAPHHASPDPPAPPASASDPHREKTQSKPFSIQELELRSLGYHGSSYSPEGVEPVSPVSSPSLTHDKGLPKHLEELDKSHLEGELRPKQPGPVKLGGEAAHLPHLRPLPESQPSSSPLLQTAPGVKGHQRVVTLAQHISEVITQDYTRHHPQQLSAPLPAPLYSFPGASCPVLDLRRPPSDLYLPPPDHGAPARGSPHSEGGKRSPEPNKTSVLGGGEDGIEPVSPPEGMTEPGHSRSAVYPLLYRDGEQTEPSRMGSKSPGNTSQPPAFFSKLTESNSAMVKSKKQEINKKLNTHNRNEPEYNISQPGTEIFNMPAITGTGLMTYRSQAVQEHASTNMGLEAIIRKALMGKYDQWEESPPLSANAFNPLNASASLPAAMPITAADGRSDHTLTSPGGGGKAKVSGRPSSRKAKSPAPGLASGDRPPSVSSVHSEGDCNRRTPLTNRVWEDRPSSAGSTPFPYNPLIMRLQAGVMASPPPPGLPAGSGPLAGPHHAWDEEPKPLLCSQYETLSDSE

Assay [7] deals with Luciferin 4-monooxygenase (Photinus pyralis, UniProt P08659). Briefly: inhibition of purified Photinus pyralis luciferase – biochemical, luminescence, dose response (AID 1891).
Luciferin 4-monooxygenase, sequence (P08659 whole entry): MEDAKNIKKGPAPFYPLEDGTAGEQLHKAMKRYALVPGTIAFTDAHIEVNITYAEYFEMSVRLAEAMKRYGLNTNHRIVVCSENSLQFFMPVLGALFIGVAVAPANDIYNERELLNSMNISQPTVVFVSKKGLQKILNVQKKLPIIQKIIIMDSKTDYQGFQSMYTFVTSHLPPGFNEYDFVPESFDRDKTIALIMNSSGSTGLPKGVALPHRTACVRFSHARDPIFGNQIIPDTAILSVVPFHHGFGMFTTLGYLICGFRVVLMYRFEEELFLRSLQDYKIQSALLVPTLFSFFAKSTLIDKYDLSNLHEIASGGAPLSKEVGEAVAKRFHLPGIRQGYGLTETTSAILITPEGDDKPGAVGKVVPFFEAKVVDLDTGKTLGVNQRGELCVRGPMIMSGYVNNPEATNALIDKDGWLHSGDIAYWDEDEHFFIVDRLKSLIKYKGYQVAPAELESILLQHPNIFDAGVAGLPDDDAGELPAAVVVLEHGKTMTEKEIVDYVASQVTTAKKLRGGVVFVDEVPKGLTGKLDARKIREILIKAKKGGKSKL
For the next assay, the target named is T2, Streptokinase A (Streptococcus pyogenes serotype M1, UniProt P10520).
T2 sequence (P10520 whole entry): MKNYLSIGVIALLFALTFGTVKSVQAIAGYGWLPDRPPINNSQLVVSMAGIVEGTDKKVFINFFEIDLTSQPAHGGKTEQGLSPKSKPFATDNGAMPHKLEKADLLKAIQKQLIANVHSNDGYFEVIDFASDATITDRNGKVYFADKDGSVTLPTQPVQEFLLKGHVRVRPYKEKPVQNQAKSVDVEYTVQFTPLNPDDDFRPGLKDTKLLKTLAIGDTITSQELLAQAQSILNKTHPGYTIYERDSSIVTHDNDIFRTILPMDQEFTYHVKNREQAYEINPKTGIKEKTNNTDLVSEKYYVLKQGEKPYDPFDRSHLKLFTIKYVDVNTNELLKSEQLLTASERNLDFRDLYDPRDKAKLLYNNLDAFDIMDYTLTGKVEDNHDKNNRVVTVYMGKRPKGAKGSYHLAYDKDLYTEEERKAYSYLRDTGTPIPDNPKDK
Nature of the assay: viability-normalized secreted streptokinase activity reduction – plasminogen activation absorbance, OD405, dose response (AID 1914).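 Also: secreted streptokinase activity via plasminogen activation per viability signal from cell pellet.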 It is filed as functional, Streptococcus pyogenes M1 GAS.

In assay [8] the target is T3, RNA-binding protein pos-1 (Caenorhabditis elegans, UniProt G5EF15).
T3 sequence (G5EF15 whole entry): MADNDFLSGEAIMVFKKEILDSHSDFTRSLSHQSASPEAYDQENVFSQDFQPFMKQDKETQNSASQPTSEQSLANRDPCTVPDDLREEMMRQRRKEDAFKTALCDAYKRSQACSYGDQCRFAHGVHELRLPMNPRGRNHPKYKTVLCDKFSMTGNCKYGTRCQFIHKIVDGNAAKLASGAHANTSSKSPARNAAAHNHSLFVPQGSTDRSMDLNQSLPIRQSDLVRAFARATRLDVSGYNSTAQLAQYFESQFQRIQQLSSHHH
Briefly: disruptors of C. elegans POS-1 RNA interaction – biochemical, fluorescence polarization, dose response (AID 1964).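 Also: purified POS-1 fused to maltose binding protein made in E. coli; potency of compounds blocking POS-1 binding to fluorescent RNA.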

Assay [9] deals with Photoreceptor-specific nuclear receptor (Homo sapiens, UniProt Q9Y5X4). Nature of the assay: ligands suppressing NR2E3 nuclear receptor activity – biochemical, TR-FRET, dose response (AID 463256). It is filed as functional. On the technique in general: Time-resolved FRET reads energy transfer from a long-lived donor to a nearby acceptor.
For a further assay, the target named is Keap1/Nrf2 (Homo sapiens, UniProt Q14145). Briefly: disruptors of Keap1 binding to Nrf2 peptide – biochemical, fluorescence polarization, cherry-picked samples, dose response (AID 588683).
The target of assay [10] is T4, Zinc finger protein mex-5 (Caenorhabditis elegans, UniProt Q9XUB2).
T4 sequence (Q9XUB2 whole entry): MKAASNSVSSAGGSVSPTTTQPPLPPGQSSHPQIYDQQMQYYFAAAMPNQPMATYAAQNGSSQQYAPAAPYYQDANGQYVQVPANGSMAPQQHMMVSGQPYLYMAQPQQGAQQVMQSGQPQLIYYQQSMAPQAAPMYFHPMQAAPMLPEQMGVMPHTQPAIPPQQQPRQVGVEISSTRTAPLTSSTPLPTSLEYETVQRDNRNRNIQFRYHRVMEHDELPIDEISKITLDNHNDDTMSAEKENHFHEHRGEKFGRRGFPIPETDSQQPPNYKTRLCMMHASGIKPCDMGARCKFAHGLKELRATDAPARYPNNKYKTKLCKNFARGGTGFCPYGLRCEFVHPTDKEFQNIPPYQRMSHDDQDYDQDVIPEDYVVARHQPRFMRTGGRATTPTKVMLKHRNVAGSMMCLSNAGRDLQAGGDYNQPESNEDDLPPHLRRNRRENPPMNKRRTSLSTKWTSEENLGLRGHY
Briefly: potency of MEX-5 RNA-binding blockers – biochemical, C. elegans, fluorescence polarization, dose response (AID 1960).

Assay [11] can be described thus: restored growth of temperature-sensitive Burl-1 yeast – whole organism, S. cerevisiae, Burl-1 ts mutant, luminescence, counter-screen for SUMOylation pathway inhibitor project, dose response (AID 463199). It is filed as functional.
For a further assay, the system named is Jurkat. Briefly: blockers of NF-kB activation in T cells – Jurkat, luciferase reporter, luminescence, B- and T-cell, dose response (AID 489004).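 Also: NF-kB luciferase reporter Jurkat cells stimulated with PMA plus ionomycin.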 It counts as functional, cell-based. The following applies: Homo sapiens.
The nature of assay [12]: HEK-293T viability loss, compound-treated – cell-based, uHTS hits, cytotoxicity control for B/T-cell NF-kB inhibitor project, dose response (AID 489019).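 Also: IC50 reflects cytotoxicity as loss of cell viability.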 It counts as functional.
The target of assay [13] is Nucleotide-binding oligomerization domain-containing protein 2 (Homo sapiens, UniProt Q9HC29). Nature of the assay: inhibition of NOD2-driven NF-kB reporter – cell-based, luminescence, uHTS, HEK293 (AID 1566). It is filed as functional.
Assay [14] has as its target T5, COUP transcription factor 2 (Homo sapiens, UniProt P24468).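 Also: HEK293 cells transiently cotransfected with COUP-TFII expression vector and reporter; luciferase reporter luminescence driven by COUP-TFII from the pX2-168 reporter plasmid.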
T5 sequence (P24468 whole entry): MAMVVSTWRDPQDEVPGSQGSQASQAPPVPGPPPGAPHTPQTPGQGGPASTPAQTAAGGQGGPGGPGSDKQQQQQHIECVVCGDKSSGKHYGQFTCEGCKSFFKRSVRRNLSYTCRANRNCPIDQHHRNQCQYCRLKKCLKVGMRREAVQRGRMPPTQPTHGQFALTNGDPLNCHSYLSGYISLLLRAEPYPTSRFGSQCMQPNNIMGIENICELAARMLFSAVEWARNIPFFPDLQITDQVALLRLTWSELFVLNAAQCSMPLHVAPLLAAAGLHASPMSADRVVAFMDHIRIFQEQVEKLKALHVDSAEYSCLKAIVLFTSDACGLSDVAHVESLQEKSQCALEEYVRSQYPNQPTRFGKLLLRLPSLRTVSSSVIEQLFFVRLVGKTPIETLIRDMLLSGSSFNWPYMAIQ
Nature of the assay: Luminescence-based cell-based high throughput dose response assay to identify inhibitors of COUP-TFII (NR2F2). It is filed as functional.

Another assay concerns INS1. Briefly: INS-1E survival protection against cytokine death – cell-based, luminescence, retest, dose response (AID 449756).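 Also: cell death triggered by IL-1 beta plus TNF-alpha plus IFN-gamma mixture; protective hits raise ATP signal compared with cytokine alone wells.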 It is filed as functional. The following applies: Rattus norvegicus.
Assay [15] deals with HEK293. Nature of the assay: cells. It counts as functional, cell-based. The following applies: Homo sapiens.
The test system of assay [16] is HEK293. Briefly: NOD2 signaling inhibitors in MDP-stimulated cells, cell-based, uHTS, luminescence (AID 2001). It counts as functional. The following applies: Homo sapiens.
For assay [17], the system named is HEK293. Nature of the assay: cells. It is filed as functional, cell-based. The note with it: Homo sapiens. This is another data set of the same source.
Assay [18] has as its system HEK293. Nature of the assay: cells. It is filed as functional, cell-based. The following applies: Homo sapiens. This is another data set of the same source.
Assay [19] has as its system HEK293. Briefly: inhibition of NOD1-driven NF-kB reporter – cell-based, luminescence, uHTS, primary screen (AID 1578). It is filed as functional. The note with it: Homo sapiens.
The target in assay [20] is Dual specificity protein phosphatase 6 (Rattus norvegicus, UniProt Q64346). It counts as functional.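 Also: confirmatory in vitro dose-response testing of MKP-3 inhibition; recombinant His-tagged MKP-3 made in E. coli BL21 with OMFP substrate.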
The target of assay [21] is Dual specificity protein phosphatase 3 (Homo sapiens, UniProt P51452). Nature of the assay: SAR VHR1 Fluorescent Assay for In Vitro dose response studies Set 2. [Related pubchem assays (depositor defined):AID1654, AID1661, AID1878]. It counts as functional.
Assay [22] has as its target UDP-galactopyranose mutase (Mycobacterium tuberculosis, UniProt P9WIQ1). Nature of the assay: Inhibitors of Mycobacterium tuberculosis UDP-galactopyranose mutase (UGM) enzyme Measured in Biochemical System Using Plate Reader - 2105-02_Inhibitor_Dose_CherryPick_Activity. [Related pubchem assays (depositor defined):AID504439].

UDP-galactopyranose mutase, sequence (P9WIQ1 whole entry): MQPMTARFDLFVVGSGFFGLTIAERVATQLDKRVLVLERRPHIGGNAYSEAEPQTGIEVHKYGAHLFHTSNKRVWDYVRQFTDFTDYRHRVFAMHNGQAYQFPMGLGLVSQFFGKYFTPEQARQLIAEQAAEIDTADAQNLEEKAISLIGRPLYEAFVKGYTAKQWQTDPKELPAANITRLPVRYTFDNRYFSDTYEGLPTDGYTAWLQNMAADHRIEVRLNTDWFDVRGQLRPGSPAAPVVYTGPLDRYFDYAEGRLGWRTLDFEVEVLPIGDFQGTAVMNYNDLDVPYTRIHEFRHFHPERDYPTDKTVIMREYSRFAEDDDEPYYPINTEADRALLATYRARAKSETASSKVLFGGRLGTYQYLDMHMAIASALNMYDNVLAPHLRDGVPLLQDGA

Take `COc1cc2c(cc1NC(=O)c1cccc([N+](=O)[O-])c1C)oc1ccccc12`: the results for the half-maximal activity concentration (AC50) in assay [1] and in [2] were 41.4 µM (active) and 2.65 µM (active), respectively.

In the case of `CC(C)c1cc(C(=O)NCc2ccco2)no1`, in the assay with Escherichia coli, the concentration at half-maximal activity (AC50) was 46.2 µM (active).

As for `CN(C)c1cccc2c(C=C(C#N)C#N)ccc(N(C)C)c12`, the IC50 with MDCK [3] was > 100 µM (active); at Nonstructural protein 1, 22.6 µM (active); in the assay with MDCK [4], 15.9 µM (active).

On to `O=c1[nH]c2c(s1)C=Nc1ccccc1N2`, for which the results for the AC50 on ORF 73 and on Keap1/Nrf2 were 5.1 µM (active) and 9.53 µM (active), respectively. Moreover, the EC50 in [5] is > 260 µM (inactive); in [7] it was > 112 µM (not active); on Streptokinase A it was > 150 µM (not active); in [8], 2.6 µM (inconclusive); in assay [10], 1.23 µM (inconclusive). Moreover, the IC50 in assay [6] was 2.26 µM (active); in assay [9], 3.14 µM (active).

With `Cc1ccc(C2C(C(=O)c3cccs3)=C(O)C(=O)N2c2ccc(S(N)(=O)=O)cc2)cc1` (stereo unspecified), in assay [11], the AC50 was 48.5 µM (active).

With `O=S(=O)(NCC1CCCO1)c1ccc(-c2ccc(S(=O)(=O)NCC3CCCO3)cc2)cc1` (stereo unspecified), the IC50 was > 80 µM (inactive) in the assay on Jurkat; > 80 µM (inactive) in assay [12]; 2.02 µM (active) in assay [14]; 19.9 µM (active) with HEK293 [15]; 9.07 µM (active) in the assay with HEK293 [16]; 5.37 µM (active) with HEK293 [17]. The IC50 with HEK293 [18] is > 20 µM (inactive). Also, the EC50 was > 20 µM (inactive) in assay [13] and 1.65 µM (active) in the assay with HEK293 [19]. For the same compound, the AC50 in the assay on INS1 is 3.25 µM (active).

Consider `NS(=O)(=O)c1cc(C(=O)NC2CCSc3ccccc32)c(Cl)cc1Cl` (stereo unspecified), for which the IC50 in assay [20] and in assay [21] was > 100 µM (inactive) in each case.

Regarding `CCOCCCn1/c(=N/C(=O)c2cccs2)c(C#N)cc2c(=O)n3ccccc3nc21`, the AC50 in [22] is > 500 µM (inactive). Also, the EC50 in assay [8] was 28.9 µM (active); in assay [10], 40 µM (inconclusive).
